US11793197B2, “Use of an amphidinol for its fungicidal and/or bactericidal activity on fungi, oomycetes and/or pathogenic bacteria of plants and crop seeds” (Immunrise […], priority 2017, dated 2023)

Test system: F. graminearum spores
Assay type: cell-based, Fusarium graminearum

`C=C/C=C/CC/C=C/C=C/C=C/CC/C=C/[C@H](O)[C@H](O)[C@@H]1O[C@@H]([C@H](O)[C@H](O)C(=C)CC[C@@H](O)[C@H]2C[C@@H](O)[C@@H](O)[C@H]([C@@H](O)[C@H](O)/C=C(\C)CCC(O)CC(O)C(O)C(C)CC(O)C(O)CC(C)CCC(O)CC(=O)CC(O)CCCC(O)CCCCC(O)CO)O2)C[C@@H](O)[C@H]1O` (stereo partly shown) [amphidinol 18] was tested, and the “antifungal activity against F. graminearum” value was “has antifungal activity”.
